# Measurements from patent publication US10080748B2, “Use of flap inhibitors to reduce neuroinflammation mediated injury in the central nervous system” (Bioscience Pharma Partners, LLC, priority 2014, dated 2018).
# Counter-ions that a name gives are not always drawn. Like-named read-outs stand apart in the source and are kept apart here.
# How the values were obtained:
# [1] = test system: Primary neurons cultured from newborn rats; assay: Apoptosis of primary neurons in vitro
# Method: Primary neurons cultured from newborn rats were incubated in the presence of increasing concentrations of LTC4 or LTD4 for 16 hours.
# [2] = test system: mice subjected to CHI (mTBI model); assay: GFAP and Iba-1 immunohistochemical staining, mouse closed head injury (CHI) model; assay type: in vivo; conditions: 5 mg/kg IP once daily for 6 days after CHI; 7 dpi
# [3] = cited from earlier work
# [4] = test system: human whole blood; assay: Human whole blood bioassay of LTB4, 5-HETE and AA production; assay type: cell-based
# Description: The results are for the effects of these two FLAP inhibitors on LTB4 production and 5-HETE production. It is known that indole-acetic acid FLAP inhibitors like MK-886, MK-591 display high plasma protein binding. Thus, the potencies of these FLAP inhibitors for blocking leukotrienes in vivo are about 100 fold higher than the affinity of the inhibitors for FLAP binding. The inventors developed a bioassay that closely predicts the in vivo potency of FLAP inhibitors using human whole blood. Briefly, whole blood is incubated with a calcium ionophore like […] or zymosan in the absence or presence of increasing concentrations of a FLAP inhibitor. After incubation at 37° C. for 30 minutes, the samples are centrifuged and the plasma supernatant is subjected to reverse phase liquid chromatography coupled to tandem mass spectrometry to quantify levels of LTB4, 5-HETE, and AA production. Drug IC50 values are determined by non-linear regression analysis (GraphPad Prism).). […] As FLAP inhibitors are poorly water soluble drugs, the inventors have shown that such hydrophobic drugs can be formulated in a carrier comprising one or more vegetable oils, such as olive oil, and phosphatidylserine that are found on the Generally Accepted as Safe (GRAS) list and that such drugs can then be rapidly delivered and targeted to the brain and upper spinal cord. Hanson L R, et al, Drug Delivery 19(3):149-54, 2012.
# [5] = Brain and plasma levels 30 minutes after intraperitoneal administration; assay type: in vivo, rat; conditions: intraperitoneal 10 mg/kg in 20% DMSO/saline; 30 minutes post-dosing
# Method: The rats were injected intraperitoneally with MK-591 (10 mg/kg in 20% DMSO/saline solution). At 30 minutes post-dosing, blood was collected from anesthetized animals using a heparanized needle and plasma was separated from blood by centrifugation. The animals were then perfused with saline, while still under anesthesia, to remove drug in the blood of the cerebrovasculature. After perfusion the animals were euthanized and brain hemispheres were rapidly removed. Both plasma and brain tissue samples were frozen in liquid nitrogen followed by storage at −80° C. Drug levels in the peripheral plasma and brain were assessed using a validated tandem RP-LC/MS/MS platform. […] Using the conversion of 1 ml=1 gm. The total volume of blood was 2 ml (or […]). The total weight of the brain hemisphere (minus cerebellum) is […]. Values are expressed in ng of MK-591/mg tissue.
# [6] = cited from earlier work; remark: listed apart in the source
# [7] = Brain and plasma levels 30 minutes after intranasal administration; assay type: in vivo, rat; conditions: intranasal 60 micrograms/32 ul lipid carrier, 30 minutes post-dosing
# Method: For intranasal delivery and subsequent tissue collection, rats were anesthetized with 3.5% isoflurane and placed in a supine position on top of a heating pad. The quinoline-indole FLAP inhibitor MK-591, 60 micrograms (μg) formulated with a lipid carrier was administered using a P20 pipette. Specifically, 4 μl drops were formed at the pipette tip and lowered to alternating nostrils every two minutes until a total of eight 4 μl drops were administered. At 30 minutes after the start of intranasal delivery, blood was collected from the heart, and rats were transcardially perfused with 60 ml ice-cold 0.9% NaCl followed by 360 ml 4% paraformaldehyde at 15 ml/minute. Brain tissues were dissected into anatomical regions on ice, weighed, snap-frozen in liquid N2, and stored at −70° C. until analysis. The levels of MK-591 in tissues and plasma were measured by tandem mass spectroscopy.
# The MK-591 was formulated in a lipid carrier solution as described above. […] The rats were briefly anesthetized with 3.5% isoflurane and intranasal MK-591 (60 micrograms/32 ul lipid carrier) was administered in eight 4 ul aliquots to the nasal mucosa alternating between each nostril. The amount of drug was determined with the goal of reaching 200 nM concentration of drug which corresponds to 100× the Kd value for binding to FLAP. At 30 minutes post-dosing, blood was collected from anesthetized animals using a heparanized needle and plasma was separated from blood by centrifugation. The animals were then perfused with saline, while still under anesthesia, to remove drug in the blood of the cerebrovasculature. After perfusion the animals were euthanized and brain regions were rapidly removed. Both plasma and brain tissue samples were frozen in liquid nitrogen followed by storage at −80° C. Drug levels in the peripheral plasma and parenchymal brain tissues were assessed using a validated tandem mass spectroscopy platform. Values are expressed in ng of MK-591/mg tissue. […] The concentration of MK-591 in the cortex was 200 nM, the target concentration.
# [8] = test system: leukotriene LTC4 production; assay: LTC4 levels in brain after rat fluid percussion injury (RP LC-MS/MS); assay type: in vivo; conditions: neutrophil depletion, 0.5 mg/kg IV four days prior to TBI; 1 hour after FPI
# Method: Craniotomy and lateral fluid percussion injury (FPI) were performed using a previously validated and published procedure. Farias S, et al. J. Neurotraum, 26, 1977-1986, 2009; Frey L. C. et al. J. Neurosci. Methods 177, 267-272, 2009. Throughout the specification animals subjected to this protocol are referred to as having a TBI since this treatment protocol is a TBI model. Briefly, rats were anesthetized with 3-5% isoflurane, isosol, VEDCO Inc., St. Joseph, Mo., via nose cone and mounted in a stereotaxic head frame. A 3 millimeter (mm) craniotomy was created and centered at 3 mm caudal to bregma and 3.5 mm left of the sagittal suture, keeping the exposed dura intact. One steel support screw was embedded in the skull on the contralateral side. A Luer-Lock hub with an inside diameter of 3.5 mm was centered over the craniotomy and bonded to the skull with cyanoacrylate adhesive and capped. Dental acrylic, Snap, Parka, Inc., Edgewood, N.J., was poured around the huh and screw. After the acrylic hardened antibiotic ointment was applied around the cap and the animals were returned to their cages. The next day, approximately 15-20 hours later, animals were anesthetized with isoflurane in an induction chamber, immediately connected to the FPI apparatus, and received a 20 millisecond (ms) pulse of pressurized sterile saline at 2.7 atmospheres (atm) of pressure to simulate a moderate severity impact on the intact dural surface through the craniotomy before awakening from anesthesia. […] All animals received a subcutaneous injection of the analgesic, buprenorphine, 0.05 milligram/kilogram (mg/kg) Buprenex, prior to craniotomy, and subsequent injections every 12 hours for two days. Moistened food pellets were provided after injury, and all animals were monitored daily for well-being and weight changes.
# Two groups of four rats each were subjected to FPI as described above. Four days prior to the FPI, each animal was briefly anesthetized for less than 5 minutes with 3-3.5% isoflurane and administered either NaCl 0.9%, 2 ml/kg IV (vehicle) or vinblastine sulfate 0.5 mg/kg IV in an identical volume. Neutrophil depletion was verified by complete cell blood counts (CBC) in vinblastine treated animals 4 days after administration. Both groups were euthanized by decapitation and the brain lipids extracted 1 hour after FPI. The amounts of LTC4 formed, measured by RP LC-MS/MS and normalized per milligram of protein, were compared between groups using one-way analysis of variance and the Student-Newman-Keuls test for multiple comparisons.
# The indole FLAP inhibitor MK-886 was prepared at a dose of 2.5 milligram/milliliter (mg/ml), dissolved in dimethyl sulfoxide (DMSO) and then diluted with 0.9% saline to 10% DMSO. The rats were briefly anesthetized with 3-3.5% isoflurane and either […] at a dose of 6 mg/kg or vehicle was administered intravenously (IV) by tail vein injection. All animals were allowed to wake before undergoing additional procedures.
# Cortical and hippocampal regions from ipsilateral and contralateral hemispheres were collected in 4 ml of 80% methanol, homogenized with a Dounee homogenizer, and internal standards were added to the homogenates. Protein content was measured using bicinchoninic acid assay (BCA) for protein to normalize lipid levels to the amount of tissue. Samples were centrifuged and the supernatant was collected. Samples were diluted to a final methanol concentration of lower than 15% and then the lipids were extracted using a solid phase extraction cartridge, Strata C18-E, 100 mg/1 ml, Phenomenex, Torrence Calif. The eluate, 1 ml of methanol, was dried down and reconstituted in 70 microliters (μl) of High Performance Liquid Chromotography (HPLC) solvent A, which is 8.3 mM acetic acid buffered to pH 5.7 with NH4OH, plus […] of solvent B, which is acetonitrile/methanol, 65/35, v/v. […]
smiles,measurement,setting,value
"CCCCC/C=C\C\C=C/C=C/C=C/[C@@H](SC[C@H](NC(=O)CC[C@H](N)C(=O)O)C(=O)NCC(=O)O)[C@@H](O)CCCC(=O)O [LTC4, leukotriene C4]",neuronal apoptosis,"[1]; increasing concentrations, 16 hours, dose-dependent",induce neuronal apoptosis
"CCCCC/C=C\C\C=C/C=C/C=C/[C@@H](SC[C@H](N)C(=O)NCC(=O)O)[C@@H](O)CCCC(=O)O [LTD4, leukotriene D4]",neuronal apoptosis,[1],induce neuronal apoptosis
CC(C)(C)Sc1c(CC(C)(C)C(=O)O)n(Cc2ccc(Cl)cc2)c2ccc(OCc3ccc4ccccc4n3)cc12 [MK-591],"GFAP staining in cerebral cortex, external capsule and dentate gyrus",[2],significantly blocked the increase
same,"Iba-1 staining in cerebral cortex, external capsule and dentate gyrus",[2],significantly blocked the increase
same,t1/2 compared with MK-886,[3],longer
same,potency compared with MK-886,[4],more potent
same,AA production,"[4]; human whole blood, data not shown",neither of the FLAP inhibitors effected AA production
same,distribution between plasma and brain tissue,[5],most of the drug was in the plasma with much lower levels found in brain tissue
same,plasma protein binding,[6],high
same,brain localization (rank of regions by level),[7],"highest level of MK-591 was detected in the olfactory bulbs, followed by the hippocampus, and cortex"
same,levels of drug in plasma versus brain,[7],lower than the amount of drug reaching the brain
same,concentration at 30 min,"[7]; rat, brain cortex, other: intranasal",200 nM
"CC[C@]1(O)C[C@@H]2CN(CCc3c([nH]c4ccccc34)[C@@](C(=O)OC)(c3cc4c(cc3OC)N(C)[C@H]3[C@@](O)(C(=O)OC)[C@H](OC(C)=O)[C@]5(CC)C=CCN6CC[C@]43[C@@H]65)C2)C1 [vinblastine, vinblastine sulfate]",leukotriene production in the ipsilateral hemisphere,[8],markedly reduced
